The values that follow come from patent US20060063930A1, “Compositions and methods comprising proteinase activated receptor antagonists” (priority 2004, published 2006).

Where a name gives a salt, the structure may show the parent alone.

For the assay, the system named is PAR-2. Nature of the assay: Inhibition of PAR-2 activating peptide (AP2) calcium signaling in cells pretreated with antagonist. It is filed as cell-based, human. On the set-up: key to PAR-2 AP2 Signaling Treated/Control (T/C) / PAR-2 AP2 Signaling Treated/Control: AUC of calcium mobilization, treated ÷ control wells. To be noted: mimetic antagonists; AUC of calcium mobilization treated/control; initially screened at 1 mM compound. On the procedure: In order to assess the potential of peptides and molecules selected above to block PAR-2 signaling, cells were pretreated with potential antagonist peptides for a predetermined amount of time and were subsequently treated with various GPCR agonists. Confluent Lewis lung carcinoma (LLC) cells were loaded for 30-60 minutes with the fluorescent dye Fluo-4. Final concentration 4 uM Fluo-4, 0.02% pluronic acid in physiological buffer. Cells were then washed with assay buffer, (HBSS containing 1 mM CaCl2, 1 mM MgSO4, and 2.5 mM probenecid). Cells were stimulated with various doses of PAR-2 activating peptide, PAR-1 activating peptide or ATP. Fluorescence was monitored using a Wallac 1470 fluorescent plate reader. (See Al-ani et. al Journal of Pharmacology and Experimental Therapeutics 290:2, 753-760). Additional compound screening was performed using U87-MG human glioma cells. In this assay cells were labeled with FLIPR Calcium 3 dye (Component A), which was dissolved in 10 mls of Assay Buffer without Probenecid. Loading buffer was prepared by diluting Component A with an additional 90 mls of Assay Buffer without Probenecid, giving a total volume of a 100 ml. For plate loading, 11 mls of FLIPR Calcium 3 dye (Component A) is placed into a 15 ml conical tube+110 μl of 250 mM Probenecid, at a final in-well working volume of 2.5 mM. Finally, 50 μl of Calcium 3 dye was added wells containing 100 μl media, and incubated 1 hr, 37° C., 5% CO2. Calcium signaling was then measured using a Flexstation II (Molecular Devices) following manufacturer's instructions.
Potential antagonist compounds were initially screened at 1 mM compound concentration. Those compounds with activity were then subjected to additional confirmatory testing. Activity is reported as treated/controlled (T/C) where the area under the curve (AUC) of calcium mobilization plots in treated wells is divided by the AUC of calcium mobilization plots in control wells to generate a measure of inhibition.
`Cl.NC1CCC(C(=O)Nc2ccc(NC(=O)CC3CCCCC3)cc2)C1` (stereo in doubt) [ENMD-1768, (1R,3S)-N-(4-(2-cyclohexylacetamido)phenyl)-3-aminocyclopentanecarboxamide hydrochloride]: the “PAR-2 AP2 Signaling Treated/Control” value is on record as 0.10.
Under `CCC(C)C(=O)N1CCN(C(=O)CCCCCN)CC1` (centres unmarked) [ENMD-1033, N′-[S-2-methylbutanoyl]-N^4-[6′-aminohexanoyl]-piperazine] stands 0.28.
Under `CC[C@@H](C)C(=O)N1CCN(C(=O)CCCCCN)CC1` [ENMD-1034, N^1-[R-2-methylbutanoyl]-N^4-[6′-aminohexanoyl]-piperazine] stands 0.39; under `CC(C)C(=O)N1CCN(C(=O)CCCCCN)CC1` [ENMD-1035, N′-[2′-methylpropanoyl]-N^4-[6′-aminohexanoyl]-piperazine], 0.32.
Consider `CCCC(=O)N1CCN(C(=O)CCCCCN)CC1` [ENMD-1036, N^1-butanoyl-N-4-[6′-aminohexanoyl]-piperazine], for which the “PAR-2 AP2 Signaling Treated/Control” value is on record as 0.55.
Under `CCC(=O)N1CCN(C(=O)CCCCCN)CC1` [ENMD-1037, N′-propanoyl-N-4-[6′-aminohexanoyl]-piperazine] stands 0.55.
Under `CC(C)CCCC(=O)N1CCN(C(=O)CCCCCN)CC1` [ENMD-1038, N^1-[5′-methylhexanoyl]-N^4-[6′-aminohexanoyl]-piperazine] stands 0.35; under `CCCCCC(=O)N1CCN(C(=O)CCCCCN)CC1` [ENMD-1039, N^1-hexanoyl-N^4-[6-aminohexanoyl]-piperazine], 1.34.
Under `CCCCC(=O)N1CCN(C(=O)CCCCCN)CC1` [ENMD-1040, N^1-pentanoyl-N-4-[6′-aminohexanoyl]-piperazine] stands 1.04.
As for `CC(C)CCC(=O)N1CCN(C(=O)CCCCCN)CC1` [ENMD-1041, N^1-[4′-methylpentanoyl]-N^4-[6′-aminohexanoyl]-piperazine], the “PAR-2 AP2 Signaling Treated/Control” value was found to be 0.17.
In the case of `CC(C)CC(=O)N1CCN(C(=O)Cc2ccc(N)cc2)CC1` [ENMD-1065, N^1-3-methylbutyryl-N^4-[2-(4-aminophenyl)-ethanoyl]-piperazine] it was 0.34; in that of `CC(C)CC(=O)N1CCN(C(=O)Cc2cnc[nH]2)CC1` [ENMD-1066, 1-(4-(2-(1H-imidazol-4-yl)acetyl)piperazin 1-yl)-3-methylbutan-1-amide hydrochloride], 0.20; in that of `CC(C)CC(=O)N1CCN(C(=O)CCCCCNC(=N)N)CC1` [ENMD-1067, 4-(3-methylbutanoyl)piperazin-1-(5′-carbamoyl-pentylguanidine)], 0.77.
Under `O=C(Cc1ccccn1)N1CCN(C(=O)CC2CCCCC2)CC1` [ENMD-1069, 1-(4-(2-cyclohexylacetyl)piperazin-1-yl)-2-(pyridin-2-yl)-acetaldehyde] stands 0.94; under `Nc1ccc(CC(=O)N2CCN(C(=O)CC3CCCCC3)CC2)cc1` [ENMD-1070, N^1-2-cyclohexylethanoyl-N^4-[2-(4-aminophenyl)-ethanoyl]-piperazine], 0.05.
For the compound `O=C(Cc1cnc[nH]1)N1CCN(C(=O)CC2CCCCC2)CC1` [ENMD-1071, 1-(4-(2-(1H-imidazol-4-yl)acetyl)piperazin-1-yl)-1-cyclohexyl-acetamide hydrochloride], the “PAR-2 AP2 Signaling Treated/Control” value is recorded as 0.16.
Consider `N=C(N)NCCCCCC(=O)N1CCN(C(=O)CC2CCCCC2)CC1` [ENMD-1072, 4-(1-cyclohexylacetyl)piperazin-1-(5′-carbamoyl-pentylguanidine)], for which the “PAR-2 AP2 Signaling Treated/Control” value is recorded as 0.56.
Under `NCCCCCC(=O)N1CCN(C(=O)CC2CCCCC2)CC1` [ENMD-1073, N′-(2-cyclohexylethanoyl)-N^4-(6-aminohexanoyl)piperazine] stands 0.56; under `O=C(Cc1cccnc1)N1CCN(C(=O)CC2CCCCC2)CC1` [ENMD-1074, 1-(4-(2-cyclohexylacetyl)piperazin-1-yl)-2-(pyridin-3-yl)-acetaldehyde], 0.35; under `Nc1ccc(CC(=O)N2CCN(C(=O)Cc3ccccc3)CC2)cc1` [ENMD-1075, N^1-2-phenylethanoyl-N^4-[2-(4-aminophenyl)-ethanoyl]-piperazine], 0.71.
In the case of `O=C(Cc1ccccc1)N1CCN(C(=O)Cc2cnc[nH]2)CC1` [ENMD-1076, 1-(4-(2-(1H-imidazol-4-yl)acetyl)piperazin-1-yl)-1-benzyl-amide] it was 0.14.
Under `N=C(N)NCCCCCC(=O)N1CCN(C(=O)Cc2ccccc2)CC1` [ENMD-1077, 4-phenylacetoyl-piperazin-1-(5′-carbamoyl-pentylguanidine)] stands 0.80; under `NCCCCCC(=O)N1CCN(C(=O)Cc2ccccc2)CC1` [ENMD-1078, N^1-(2-phenylethanoyl)-N^4-(6-aminohexanoyl)piperazine], 0.42; under `O=C(Cc1ccncc1)N1CCN(C(=O)CC2CCCCC2)CC1` [ENMD-1079, 1-(4-(2-cyclohexylacetyl)piperazin-1-yl)-2-(pyridin-4-yl)-acetaldehyde], 0.90.
With `CC(C)CC(=O)Nc1ccc(NC(=O)CCCCCN)cc1` [ENMD-1391, N-(4-(3-methylbutanamido)phenyl)-6-aminohexanamide], the “PAR-2 AP2 Signaling Treated/Control” value was determined as 0.01.
Under `Br.CC(C)CC(=O)NCCNC(=O)CCCCCN` [ENMD-1393, N-(2-(3-methylbutanamido)ethyl)-6-aminohexan-amide hydrobromide] stands 0.81; under `CC(C)CC(=O)Nc1ccc(NC(=O)CCCN)cc1` [ENMD-1397, N-(4-(3-methylbutanamido)phenyl)-4-aminobutyl-amide hydrobromide], 0.15.
Turning to `COC(=O)CCCCC(=O)N1CCN(C(=O)CC(C)C)CC1` [ENMD-1402, Methyl 6-(4-(3-methylbutanoyl)piperazin-1-yl)-6-oxohexanoate], the “PAR-2 AP2 Signaling Treated/Control” value came out at 0.64.
In the case of `CC(C)COc1ccc(C(=O)NCCCCN)cc1` [ENMD-1405, N-(4-aminobutyl)-4-isobutoxy-benzamide] it was 0.13.
Under `NCCCCNC(=O)c1ccc(OCC2CCCCC2)cc1` [ENMD-1406, N-(4-aminobutyl)-4-(cyclohexylmethoxy)-benzamide] stands 0.24.
In the case of `CC(C)COc1ccc(C(=O)NCCCN)cc1` [ENMD-1408, N-(3-aminopropyl)-4-isobutoxy-benzamide], the “PAR-2 AP2 Signaling Treated/Control” value is listed as 0.35.
In the case of `NCCCNC(=O)c1ccc(OCC2CCCCC2)cc1` [ENMD-1409, N-(3-aminopropyl)-4-(cyclohexylmethoxy)-benzamide] it was 0.45; in that of `CC(C)CNC(=O)c1ccc(OCCCN)cc1` [ENMD-1410, 4-(3-aminopropoxy)-N-isobutyl-benzamide], 0.55.
With `NCCCOc1ccc(C(=O)NCC2CCCCC2)cc1` [ENMD-1411, 4-(3-aminopropoxy)-N-(cyclohexylmethyl)-benzamide], the “PAR-2 AP2 Signaling Treated/Control” value is given as 0.43.
Under `CC(C)CC(=O)NCCNC(=O)Cc1ccc(N)cc1.Cl` [ENMD-1416, N-(2-(2-(4-aminophenyl)acetamido)ethyl)-3-methylbutan-amide hydrochloride] stands 0.48; under `NCCCCCC(=O)NCCNC(=O)CC1CCCCC1` [ENMD-1417, N-(2-(2-cyclohexylacetamido)ethyl)-6-aminohexan-amide], 0.38.
Under `CC(C)CNC(=O)[C@@H]1CC[C@@H](NC(=O)CCCCCN)C1` [ENMD-1504, N-isobutyl-3R-(6-aminohexanamido)-cyclopentane-1R-carboxamide] stands 0.71.
In the case of `NCCCCCC(=O)N[C@@H]1CC[C@H](C(=O)NCC2CCCCC2)C1` [ENMD-1505, N-cyclohexylmethyl-3S-(6-aminohexanamido)-cyclopentane-1R-carboxamide] it was 0.19; in that of `NCCCCNC(=O)c1ccc(CCC2CCCCC2)cc1` [ENMD-1509, N-(4-aminobutyl)-4-(2-cyclohexylethyl)-benzamide], 0.71.
As to `NCCCCNC(=O)c1ccc(NC(=O)C2CCCCC2)cc1` [ENMD-1511, N-(4-aminobutyl)-4-(cyclohexanecarboxamido)-benzamide hydrochloride], the “PAR-2 AP2 Signaling Treated/Control” value is recorded as 0.13.
Take `NCCCCCC(=O)NC1CN(C(=O)CC2CCCCC2)C1` [ENMD-1513, N-[1-(2-cyclohexylacetyl)azetidin-3-yl]-6-aminohexanamide]: the “PAR-2 AP2 Signaling Treated/Control” value was 0.97.
